Assay results from PubChem BioAssay (NCI).
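All cell lines were grown in 96-well plates and treated with compound for 48 hours. Here, GI50 denotes the concentration required for 50% inhibition of growth. Definition used: TGI = concentration required for complete inhibition of growth.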

Key:
Assay in all cases: NCI-60 cell line screen, 48 h
CAKI-1 renal = system: CAKI-1 renal
NCI-H460 lung = system: NCI-H460 lung
OVCAR-3 ovarian = system: OVCAR-3 ovarian
786-0 renal = system: 786-0 renal
ACHN renal = system: ACHN renal
HCC-2998 colon = system: HCC-2998 colon
NCI/ADR-RES ovarian = system: NCI/ADR-RES ovarian
TK-10 renal = system: TK-10 renal
LOX IMVI melanoma = system: LOX IMVI melanoma
SW-620 colon = system: SW-620 colon
KM12 colon = system: KM12 colon
DU-145 prostate = system: DU-145 prostate
MALME-3M melanoma = system: MALME-3M melanoma
IGROV1 ovarian = system: IGROV1 ovarian
EKVX NSCLC = system: EKVX NSCLC
MOLT-4 leukemia = system: MOLT-4 leukemia
UO-31 renal = system: UO-31 renal
OVCAR-4 ovarian = system: OVCAR-4 ovarian
UACC-62 melanoma = system: UACC-62 melanoma
OVCAR-8 ovarian = system: OVCAR-8 ovarian
CCRF-CEM leukemia = system: CCRF-CEM leukemia
SF-268 CNS = system: SF-268 CNS
MDA-MB-435 = system: MDA-MB-435
BT-549 breast = system: BT-549 breast
RPMI-8226 leukemia = system: RPMI-8226 leukemia
HT29 colon = system: HT29 colon
SK-MEL-28 melanoma = system: SK-MEL-28 melanoma
NCI-H23 lung = system: NCI-H23 lung
PC-3 prostate = system: PC-3 prostate
SNB-19 CNS = system: SNB-19 CNS
SF-295 CNS = system: SF-295 CNS
SF-539 CNS = system: SF-539 CNS
HS 578T breast = system: HS 578T breast
SK-MEL-2 melanoma = system: SK-MEL-2 melanoma
A549 NSCLC = system: A549 NSCLC
MDA-MB-231 breast = system: MDA-MB-231 breast
MCF7 breast = system: MCF7 breast
COLO 205 colon = system: COLO 205 colon
NCI-H226 lung = system: NCI-H226 lung
HL-60(TB) leukemia = system: HL-60(TB) leukemia
SNB-75 CNS = system: SNB-75 CNS
SK-MEL-5 melanoma = system: SK-MEL-5 melanoma
HCT-116 colon = system: HCT-116 colon
HCT-15 colon = system: HCT-15 colon
U251 CNS = system: U251 CNS
SR leukemia = system: SR leukemia
M14 melanoma = system: M14 melanoma
OVCAR-5 ovarian = system: OVCAR-5 ovarian
K-562 leukemia = system: K-562 leukemia
UACC-257 melanoma = system: UACC-257 melanoma
NCI-H522 lung = system: NCI-H522 lung
HOP-62 NSCLC = system: HOP-62 NSCLC
SK-OV-3 ovarian = system: SK-OV-3 ovarian
SN12C renal = system: SN12C renal
T-47D breast = system: T-47D breast
HOP-92 NSCLC = system: HOP-92 NSCLC
A498 renal = system: A498 renal
RXF 393 renal = system: RXF 393 renal

With `O=c1nc(Nc2ccc([N+](=O)[O-])cc2O)sc2ccccc12` the GI50 (CAKI-1 renal) was 0.659 µM, the TGI (CAKI-1 renal) was greater than 16.7 µM and the GI50 (NCI-H460 lung) was 0.67 µM. The TGI (NCI-H460 lung) was greater than 16.7 µM, the GI50 (OVCAR-3 ovarian) was 0.719 µM and the TGI (OVCAR-3 ovarian) was greater than 16.7 µM. The GI50 (786-0 renal) was 6.06 µM, the TGI (786-0 renal) was greater than 16.7 µM and the GI50 (ACHN renal) was 2.16 µM. The TGI (ACHN renal) was greater than 16.7 µM, the GI50 (HCC-2998 colon) was 4.39 µM and the TGI (HCC-2998 colon) was greater than 16.7 µM. It also gave a GI50 (NCI/ADR-RES ovarian) of 0.532 µM, a TGI (NCI/ADR-RES ovarian) of 4.47 µM and a GI50 (TK-10 renal) greater than 16.7 µM. It also gave a TGI (TK-10 renal) greater than 16.7 µM, a GI50 (LOX IMVI melanoma) of 1.14 µM and a TGI (LOX IMVI melanoma) greater than 16.7 µM. It also gave a GI50 (SW-620 colon) of 0.955 µM, a TGI (SW-620 colon) greater than 16.7 µM and a GI50 (KM12 colon) of 1.04 µM. It also gave a TGI (KM12 colon) greater than 16.7 µM, a GI50 (DU-145 prostate) of 5.61 µM and a TGI (DU-145 prostate) greater than 16.7 µM. It also gave a GI50 (MALME-3M melanoma) of 4.09 µM, a TGI (MALME-3M melanoma) greater than 16.7 µM and a GI50 (IGROV1 ovarian) of 1.11 µM. For the same compound, the TGI (IGROV1 ovarian) was greater than 16.7 µM, the GI50 (EKVX NSCLC) was 4.05 µM and the TGI (EKVX NSCLC) was greater than 16.7 µM. It also gave a GI50 (MOLT-4 leukemia) of 3.73 µM, a TGI (MOLT-4 leukemia) greater than 16.7 µM and a GI50 (UO-31 renal) of 0.853 µM. For the same compound, the TGI (UO-31 renal) was greater than 16.7 µM, the GI50 (OVCAR-4 ovarian) was 4.4 µM and the TGI (OVCAR-4 ovarian) was greater than 16.7 µM. For the same compound, the GI50 (UACC-62 melanoma) was 0.88 µM, the TGI (UACC-62 melanoma) was greater than 16.7 µM and the GI50 (OVCAR-8 ovarian) was 3.83 µM. The TGI (OVCAR-8 ovarian) was greater than 16.7 µM, the GI50 (CCRF-CEM leukemia) was 4.47 µM and the TGI (CCRF-CEM leukemia) was greater than 16.7 µM. It also gave a GI50 (SF-268 CNS) of 1.31 µM, a TGI (SF-268 CNS) greater than 16.7 µM and a GI50 (MDA-MB-435) of 0.466 µM. The TGI (MDA-MB-435) was greater than 16.7 µM, the GI50 (BT-549 breast) was 0.885 µM and the TGI (BT-549 breast) was greater than 16.7 µM. It also gave a GI50 (RPMI-8226 leukemia) of 0.737 µM, a TGI (RPMI-8226 leukemia) of 10.8 µM and a GI50 (HT29 colon) greater than 16.7 µM. For the same compound, the TGI (HT29 colon) was greater than 16.7 µM, the GI50 (SK-MEL-28 melanoma) was 4.22 µM and the TGI (SK-MEL-28 melanoma) was greater than 16.7 µM. The GI50 (NCI-H23 lung) was 1.1 µM, the TGI (NCI-H23 lung) was greater than 16.7 µM and the GI50 (PC-3 prostate) was 4.92 µM. It also gave a TGI (PC-3 prostate) greater than 16.7 µM, a GI50 (SNB-19 CNS) of 0.949 µM and a TGI (SNB-19 CNS) greater than 16.7 µM. The GI50 (SF-295 CNS) was 1.11 µM, the TGI (SF-295 CNS) was greater than 16.7 µM and the GI50 (SF-539 CNS) was 0.696 µM. It also gave a TGI (SF-539 CNS) of 8.94 µM, a GI50 (HS 578T breast) of 0.576 µM and a TGI (HS 578T breast) greater than 16.7 µM. For the same compound, the GI50 (SK-MEL-2 melanoma) was 1.18 µM, the TGI (SK-MEL-2 melanoma) was greater than 16.7 µM and the GI50 (A549 NSCLC) was 4.58 µM. It also gave a TGI (A549 NSCLC) greater than 16.7 µM, a GI50 (MDA-MB-231 breast) of 7.41 µM and a TGI (MDA-MB-231 breast) greater than 16.7 µM. For the same compound, the GI50 (MCF7 breast) was 0.637 µM, the TGI (MCF7 breast) was greater than 16.7 µM and the GI50 (COLO 205 colon) was greater than 16.7 µM. It also gave a TGI (COLO 205 colon) greater than 16.7 µM, a GI50 (NCI-H226 lung) of 0.783 µM and a TGI (NCI-H226 lung) greater than 16.7 µM. The GI50 (HL-60(TB) leukemia) was 0.662 µM, the TGI (HL-60(TB) leukemia) was 3.69 µM and the GI50 (SNB-75 CNS) was 0.307 µM. For the same compound, the TGI (SNB-75 CNS) was 1.2 µM, the GI50 (SK-MEL-5 melanoma) was 0.858 µM and the TGI (SK-MEL-5 melanoma) was 5.41 µM. The GI50 (HCT-116 colon) was 0.882 µM, the TGI (HCT-116 colon) was greater than 16.7 µM and the GI50 (HCT-15 colon) was 0.756 µM. For the same compound, the TGI (HCT-15 colon) was greater than 16.7 µM, the GI50 (U251 CNS) was 1.06 µM and the TGI (U251 CNS) was greater than 16.7 µM. It also gave a GI50 (SR leukemia) of 0.462 µM, a TGI (SR leukemia) greater than 16.7 µM and a GI50 (M14 melanoma) of 0.648 µM. The TGI (M14 melanoma) was greater than 16.7 µM, the GI50 (OVCAR-5 ovarian) was 9.42 µM and the TGI (OVCAR-5 ovarian) was greater than 16.7 µM. The GI50 (K-562 leukemia) was 0.557 µM, the TGI (K-562 leukemia) was greater than 16.7 µM and the GI50 (UACC-257 melanoma) was 1.66 µM. It also gave a TGI (UACC-257 melanoma) greater than 16.7 µM, a GI50 (NCI-H522 lung) of 0.786 µM and a TGI (NCI-H522 lung) of 10.4 µM. The GI50 (HOP-62 NSCLC) was 0.917 µM, the TGI (HOP-62 NSCLC) was greater than 16.7 µM and the GI50 (SK-OV-3 ovarian) was 1.31 µM. The TGI (SK-OV-3 ovarian) was greater than 16.7 µM, the GI50 (SN12C renal) was 3.15 µM and the TGI (SN12C renal) was greater than 16.7 µM. It also gave a GI50 (T-47D breast) of 4.3 µM, a TGI (T-47D breast) greater than 16.7 µM and a GI50 (HOP-92 NSCLC) of 2.3 µM. For the same compound, the TGI (HOP-92 NSCLC) was 15.9 µM, the GI50 (A498 renal) was 0.574 µM and the TGI (A498 renal) was 2.3 µM. It also gave a GI50 (RXF 393 renal) of 0.437 µM and a TGI (RXF 393 renal) of 2.33 µM.
